Calls of active or inactive are those of the source.
Tests used:
Format in all cases: functional, organism-based
Plasmodium falciparum [1] = assay: Antimalarial activity against Plasmodium falciparum D6 at 40 ug/mL
[2] = tested on: Mycobacterium intracellulare; assay: Antimicrobial activity against Mycobacterium intracellular at 20 ug/mL
Plasmodium falciparum [3] = assay: Antimalarial activity against Plasmodium falciparum W2 at 40 ug/mL
Staphylococcus aureus [4] = assay: Antimicrobial activity against methicillin-resistant Staphylococcus aureus at 20 ug/mL by microplate assay
Pseudomonas aeruginosa = assay: Antimicrobial activity against Pseudomonas aeruginosa at 20 ug/mL
Candida albicans = assay: Antimicrobial activity against Candida albicans at 20 ug/mL by NCCLS method
Cryptococcus neoformans = assay: Antimicrobial activity against Cryptococcus neoformans at 20 ug/mL by microplate assay
Aspergillus fumigatus = assay: Antimicrobial activity against Aspergillus fumigatus at 20 ug/mL
Staphylococcus aureus [5] = assay: Antimicrobial activity against Staphylococcus aureus at 20 ug/mL by microplate assay

Measured: Activity

C[C@H](CC[C@H](O)C(C)(C)O[C@@H]1O[C@H](CO)[C@@H](O)[C@H](O)[C@H]1O)[C@H]1CC[C@@]2(C)[C@@H]3[C@@H](O)C[C@H]4C(C)(C)[C@H](O)CC(=O)[C@@]45C[C@@]35CC[C@]12C
inactive: Plasmodium falciparum [1] | [2] | Plasmodium falciparum [3] | Staphylococcus aureus [4] | Pseudomonas aeruginosa | Candida albicans | Cryptococcus neoformans | Aspergillus fumigatus | Staphylococcus aureus [5]

C[C@H](CC[C@H](O)C(C)(C)O[C@@H]1O[C@H](CO)[C@@H](O)[C@H](O)[C@H]1O)[C@H]1CC[C@@]2(C)[C@@H]3CC[C@H]4C(C)(C)[C@H](O)CC(=O)[C@@]45C[C@@]35C(=O)C[C@]12C
inactive: Plasmodium falciparum [1] | [2] | Plasmodium falciparum [3] | Staphylococcus aureus [4] | Pseudomonas aeruginosa | Candida albicans | Cryptococcus neoformans | Aspergillus fumigatus | Staphylococcus aureus [5]

C[C@H](CC[C@H](O)C(C)(C)O[C@@H]1O[C@H](CO)[C@@H](O)[C@H](O)[C@H]1O)[C@H]1CC[C@@]2(C)[C@H]3C(=CC[C@]12C)C[C@]12O[C@H]3C[C@H]1C(C)(C)[C@H](O)C[C@@H]2O
inactive: Plasmodium falciparum [1] | [2] | Plasmodium falciparum [3] | Staphylococcus aureus [4] | Pseudomonas aeruginosa | Candida albicans | Cryptococcus neoformans | Aspergillus fumigatus | Staphylococcus aureus [5]

C[C@H](CC[C@H](O)C(C)(C)O[C@@H]1O[C@H](CO)[C@@H](O)[C@H](O)[C@H]1O)[C@H]1CC[C@@]2(C)[C@@H]3[C@@H](O)C[C@H]4C(C)(C)C=CC(=O)[C@@]45C[C@@]35CC[C@]12C
inactive: Plasmodium falciparum [1] | [2] | Plasmodium falciparum [3] | Staphylococcus aureus [4] | Pseudomonas aeruginosa | Candida albicans | Cryptococcus neoformans | Aspergillus fumigatus | Staphylococcus aureus [5]

From ChEMBL document CHEMBL1140146, “Cycloartane glycosides from Sutherlandia frutescens” (J Nat Prod, 2008)
